# Data reported in patent US12150940B2, “WASp-protecting small molecules, compositions, methods and uses thereof in the treatment of innate and acquired immune-related disorders or conditions” (BAR ILAN UNIVERSITY, priority 2016, dated 2024).
# Peptide text beside a SMILES is read from it. * marks the point of attachment. Cbz = O=C(OCc1ccccc1)*
# Molecular target: T1, WASp (Homo sapiens, UniProt P42768)
# T1 construct: endogenous in cells; host or cells: primary human platelets from healthy donors
# T1 sequence (P42768 1-502): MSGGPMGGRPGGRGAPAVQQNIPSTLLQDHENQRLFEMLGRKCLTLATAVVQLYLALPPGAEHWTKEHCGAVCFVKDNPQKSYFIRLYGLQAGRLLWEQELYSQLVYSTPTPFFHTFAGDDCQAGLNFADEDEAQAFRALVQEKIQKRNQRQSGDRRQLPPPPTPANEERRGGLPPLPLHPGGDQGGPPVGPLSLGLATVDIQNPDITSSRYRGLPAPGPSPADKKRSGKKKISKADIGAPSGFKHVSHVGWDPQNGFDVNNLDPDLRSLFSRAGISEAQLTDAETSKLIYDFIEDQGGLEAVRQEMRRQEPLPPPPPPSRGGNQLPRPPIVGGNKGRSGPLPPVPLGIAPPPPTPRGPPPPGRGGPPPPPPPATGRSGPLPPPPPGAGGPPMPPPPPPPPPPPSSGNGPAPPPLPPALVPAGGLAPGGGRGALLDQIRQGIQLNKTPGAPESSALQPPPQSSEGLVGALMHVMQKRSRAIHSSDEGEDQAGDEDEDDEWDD
# Experiment: WASp expression in TRAP-6-activated platelets (western blot)
# Type: cell-based
# Protocol: FIG. 4A-4B. Freshly-isolated platelets were incubated with SMC #6 or control at 37° C. for the indicated times. The platelets were either stimulated (+) with TRAP-6 (10 μM) or left unstimulated (−), followed by lysis. Lysates were analyzed for WASp expression by immunoblotting with anti-WASp and anti-GAPDH as loading control (FIG. 4A). Relative WASp expression was determined by densitometric analysis and is presented in a summarizing graph of FIG. 4B. Error bars represent the SE from the mean. P values are presented and were calculated by two-tailed Student's t-test. Data are representative of three independent experiments.
# Jurkat T-cells (FIG. 5A) or Freshly-isolated PBMCs (FIG. 5B) were incubated for 15 min at 37° C. with either control or the indicated WASp-binding SMCs, followed by co-stimulation with anti-CD3 and anti-CD28 and lysis. Freshly-isolated platelets were incubated for 15 min at 37° C. with either control or the indicated WASp-binding SMCs, followed by stimulation with TRAP-6 (10 μM) and lysis (FIG. 5C). Lysates were analyzed for WASp expression by immunoblotting with anti-WASp and anti-GAPDH as loading control. Western blot is representative of three independent experiments. […] Relative WASp expression was determined by densitometric analysis. […]
# FIG. 6A-6D. […] Lysates were analyzed for WASp expression by immunoblotting with anti-WASp and anti-GAPDH as loading control (FIG. 6A). […]
"WASp degradation in activated platelets (40 μM, 15 min pre-incubation, vs DMSO control)",SMILES,"increase in WASp expression (platelets after 15 min of activation, with vs without proteasome inhibitor (10 μM, 1 h))"
–,CC(C)C[C@@H](C=O)NC(=O)[C@H](CC(C)C)NC(=O)[C@H](CC(C)C)NC(=O)OCc1ccccc1 [MG132] (Cbz-Leu-Leu-Leu-aldehyde),more than 2 fold
attenuated WASp degradation,"CC(=O)N[C@H]1C[C@@H](c2ccc3c(c2)nnn3C)O[C@@H](c2ccc(Cl)cc2)C1 [SMC #6, N-[(2R,4R,6S)-2-(4-chlorophenyl)-6-(1-methylbenzotriazol-5-yl)oxan-4-yl]acetamide]",–
